US4931569A, “Purification of stable water-soluble dioxetanes” (Tropix, Inc., priority 1988, dated 1990)
Counter-ions that a name gives are not always drawn.

What was measured:
alkaline phosphatase = alkaline phosphatase chemiluminescence assay (light emission, Turner 20E Luminometer; sensitivity plot); type: biochemical; conditions: for light emission upon reaction with alkaline phosphatase: peaks collected from preparative HPLC (FIG. 1), lyophilized, tested as substrate, FIG. 2
Text: Another such method involves testing the 1,2-dioxetane derivative as a substrate for an enzyme in a chemiluminescence assay (see for example, Example 2 infra), and comparing its behavior to that of an authentic sample of highly pure substrate in the same assay. The light intensity produced per unit amount of the substrate is directly proportional to the degree of purity of the substrate, when compared to the light intensity produced by the highly pure sample. When the light intensity produced from pure and impure substrate is plotted as a function of the molar concentration of the biochemical analyte, a family of parallel sigmoid curves is produced; this is called a sensitivity plot. The sensitivity curve for an impure sample will be shifted to the right of the curve for a pure sample; that is, the assay is less sensitive when using the impure sample. The greater the degree of impurity, the greater the shift of the sensitivity curve to the right. Purification of the crude reaction products of the chemical syntheses of the chemiluminescent, water-soluble 1,2 dioxetane derivatives by the methods of this invention will increase the sensitivity of the assay using the dioxetane product by at least 2-fold, preferably about 10-fold (see Example 6, FIG. 9).
The breakdown product and the AMPPD from FIG. 1 were collected, dried by lyophilization, then tested as a substrate for alkaline phosphatase in a chemiluminescence assay. The details of this assay are provided in copending U S. Pat. Application Ser. No. 889,823, which is incorporated herein by reference to the extent that it discloses assay conditions for alkaline phosphatase. Light emission was determined in a Turner 20E Luminometer.
The alkaline phosphatase chemiluminescent assay was applied to a relatively crude sample of AMPPD from Example 4, FIG. 5, and to an HPLC purified sample of AMPPD from Example 3, FIG. 3D. Light intensity produced in the chemiluminescent assay was plotted as a function of the molar concentration of alkaline phosphatase in the assay mixture (FIG. 9).

[1] = stability of the dioxetane in solution or after lyophilization, followed by analytical HPLC; type: physicochemical
Experimental: Peak fractions from FIG. 3C were combined, lyophilized, then analyzed by analytical HPLC on a reversed phase PLRP-S analytical column with a gradient of acetonitrile in 0.1% NaHCO3 buffer, pH 8.6, as the mobile phase.
The AMPPD fraction from FIG. 4 was collected, freeze-dried, then fractionated on an analytical size column of Dynamax C-18 using as the mobile phase a gradient of acetonitrile in 0.1% ammonium acetate, pH 7.0.
The 6 minute AMPPD peak from FIG. 4, which eluted with 31% acetonitrile in 0.1% ammonium acetate buffer, pH 7.0, was stored overnight in this solution without concentration, then chromatographed by HPLC on an analytical Dynamax C-18 column in a gradient of acetonitrile in 0.1% ammonium acetate buffer, pH 7.0 (FIG. 6).
When, however, AMPPD in the 6-minute peak from preparative HPLC (FIG. 4) was stored in the presence of the ammonium acetate column effluent for long periods of time at 4° C.

Structure (SMILES): COC1(c2cccc(OP(=O)(O)O)c2)OOC12C1CC3CC(C1)CC2C3 (centres unmarked) [AMPPD, 3-(2'-spiroadamantane)-4-methoxy-4-(3"-phosphoryloxy)phenyl-1,2-dioxetane disodium salt]
- sensitivity of the chemiluminescent assay relative to crude AMPPD (alkaline phosphatase; HPLC purified sample (FIG. 3D) vs crude sample (FIG. 5), at all concentrations of alkaline phosphatase, FIG. 9): at least an order of magnitude greater
- light emission upon reaction with alkaline phosphatase (alkaline phosphatase): typical of AMPPD
- lowest concentration of alkaline phosphatase that could be detected (alkaline phosphatase; with purified AMPPD as substrate): about 10^-15 M
- stability on brief (overnight) storage in ammonium acetate buffer ([1]; 31% acetonitrile in 0.1% ammonium acetate buffer, pH 7.0, without concentration, FIG. 6): did not lead to significant breakdown
- stability in water ([1]; desalted and non-desalted preparations, analytical HPLC on PLRP-S, FIG. 3D): stable for long periods
- stability after lyophilization in the presence of ammonium ions ([1]; freeze-dried from 0.1% ammonium acetate buffer, pH 7.0, analytical HPLC on Dynamax C-18, FIG. 5): unstable
- stability on long-term storage in ammonium acetate column effluent ([1]; long periods of time at 4° C. in the dark, analytical HPLC on Dynamax C18, FIG. 7): increased breakdown

Structure (SMILES): COC(=O)c1cccc(OP(=O)(O)O)c1 [Breakdown Product]
- light emission upon reaction with alkaline phosphatase (alkaline phosphatase): no light emission
